Test results as given in patent US20230313199A1, “TARGET FOR MODULATING BODY MASS” (Massachusetts Institute of Technology, priority 2020, published 2023).

Assays:
THP-1 cells = assay: Cellular energy charge (ATP/ADP ratio); type: cell-based, human; conditions: heme 1 hour, reduced to similar levels as in 7CKO cells
Method: Measurement of cellular energy charge (ATP/ADP ratio). ATP/ADP ratio was measured using ADP Assay Kit (Sigma Catalog No. MAK133-1KT) following manufacturer's protocol. For THP-1 cells, 24 hours before the experiment, cells were resuspended in fresh complete RPMI media. For heme treatment, 1 mL of treated cell suspension was incubated for 1 hour at 37° C. cell culture incubator, then centrifuged and resuspended in 1 mL of fresh warm complete RPMI media in order to wash off excess heme, which interferes with the assays. […] per well (approximately 10,000 cells total) was placed in a white 96-well plate, lysed with 90 μL of ATP Buffer, and incubated with gentle shaking at room temperature for 10 min. Relative ATP amount was directly measured using luminescence. Then, 5 μL of ADP Enzyme mix was added to each well and the plate was incubated with light shaking for 3 minutes. Relative amount of ADP+ATP was measured using luminescence. ADP amount was calculated by subtracting the ATP signal from ADP+ATP signal. To get ATP/ADP ratio, ATP signal was divided by the calculated ADP signal. For BMDMs, the assay was performed following the same protocol but using 20,000 cells per well.

4B8^ΔN cells = assay: OCR, ECAR, FPT intensity and MMP in 4B8 cells complemented with NTD-truncated MFSD7C; type: cell-based, human; conditions: heme 1 hour
Method: FIGS. 4A-4H show NTD of MFSD7C mediates heme effect on mitochondrial respiration. FIGS. 4A-4C show comparison of basal OCR (FIG. 4A), maximal OCR (FIG. 4B) and ECAR (FIG. 4C) of THP-1, 4B8, and 4B8^FL and 4B8^ΔN cells treated with vehicle or heme for 1 hour (n=18 separate experiments). […] Cells were incubated with FPT for 6 hrs, washed and reseeded in poly-lysine coated glass bottom dishes. After cells attached to the glass, medium containing 40 μM heme was added. Cells in the same field were imaged immediately and again 1 hour later. Relative FPT fluorescent intensities, normalized to THP-1, from three experiments are shown. (n=3 independent experiments). […] THP-1, 4B8, 4B8^FL and 4B8^ΔN cells were treated with vehicle or heme for 1 hour and MMP was measured by using JC-10 Mitochondrial Membrane Potential Assay Kit followed by flow cytometry. […] Shown are representative Western blotting data (FIG. 4G) and quantification of band intensities from n=3 independent experiments (FIG. 4H). P-values were calculated using two-way ANOVA (*p<0.05, **p<0.01, ***p<0.005). […]
Measurements of OCR, ECAR, and MMP. Oxygen consumption rate (OCR) and extracellular acidification rate (ECAR) were measured using XF96e Seahorse Extracellular Flux Analyzer per manufacturer's protocol. […]

Structure (SMILES): C=CC1=C(C)c2cc3[n-]c(cc4[n-]c(cc5nc(cc1n2)C(C)=C5C=C)c(C)c4CCC(=O)O)c(CCC(=O)O)c3C.[Fe+2] [heme]
- ATP/ADP ratio (THP-1 cells): reduced
- response to heme (OCR, ECAR, FPT intensity, MMP) (4B8^ΔN cells): little to no response to heme
